These results are taken from publication PMC9182383, “Rational Design of Plant Hairpin-like Peptide EcAMP1: Structural–Functional Correlations to Reveal Antibacterial and Antifungal Activity” (Molecules, 2022).

Where two headings read alike, the source gives them in different places. Positions of bridges follow the written chain, without caps; N, C: chain ends. Residues, ends and D or L forms follow the SMILES beside them. A value given as a limit tells only on which side of the number the result lay.

Experiment [1] concerns Alternaria alternata. Particulars: 48 h.
Experiment [2] concerns Bipolaris sorokiniana. Particulars: 48 h.
For experiment [3], the system named is S. aureus.
The test system of experiment [4] is Aspergillus niger. As to conditions: 48 h.
Experiment [5] deals with F. graminearum.
The subject of experiment [6] is filamentous fungi and oomycetes. Particulars: cited from earlier work.
Experiment [7] deals with C. albicans. As to conditions: 48 h.
Experiment [8] concerns P. aeruginosa. Put plainly: Antibacterial microdilution assay. The experiment is classed as cell-based. As to conditions: CA-MHB, 37 °C 48 h; for Antibacterial activity against P. aeruginosa: concentrations up to 80 µM. (In general: Dilution methods test growth across graded concentrations, often in twofold steps.)
Experiment [9] concerns E. coli. Put plainly: Antibacterial microdilution assay. The experiment is classed as cell-based, Escherichia coli. Particulars: CA-MHB, 37 °C 48 h; for Antibacterial activity against E. coli: concentrations up to 80 µM.
Experiment [10] relates to F. solani. Particulars: 48 h.
The subject of experiment [11] is Fusarium oxysporum. As to conditions: 48 h.
[12] abbreviates: read-out: Antifungal activity IC50, F. graminearum, Table 1, native vs truncated forms, potato–dextrose broth, 10^4–10^5 conidia per mL, 25 °C 48 h, 50% inhibition of spore germination, light microscopy, three replicates.
The mark [13] stands for this setting: Table S1, microdilution, YPDB, OD600, growth control +, negative control -.

By IC50 is commonly meant the concentration that gives 50% inhibition. For `CSCC[C@@H]1NC(=O)[C@@H]2CSSC[C@H](NC(=O)[C@H](CCC(=O)O)NC(=O)[C@H](CCC(N)=O)NC(=O)[C@H](C(C)C)NC(=O)[C@H](CCCNC(=N)N)NC(=O)[C@H](Cc3c[nH]c4ccccc34)NC(=O)[C@@H]3CCCN3C(=O)[C@H](CCC(=O)O)NC(=O)[C@H](CC(=O)O)NC(=O)[C@H](CCC(=O)O)NC(=O)[C@H](Cc3c[nH]cn3)NC(=O)[C@H](CCCNC(=N)N)NC(=O)[C@H](CCCNC(=N)N)NC1=O)C(=O)N[C@@H](C(C)C)C(=O)N[C@@H](CO)C(=O)N[C@@H](CCC(N)=O)C(=O)N[C@H](C(=O)N[C@@H](CCCNC(=N)N)C(=O)N[C@@H](CCCNC(=N)N)C(=O)N[C@@H](CCCNC(=N)N)C(=O)N[C@@H](CCCNC(=N)N)C(=O)NCC(=O)NCC(=O)NCC(=O)N[C@@H](CC(=O)O)C(=O)O)CSSC[C@H](NC(=O)[C@H](CO)NC(=O)CNC(=O)[C@H](CCCNC(=N)N)NC(=O)CNC(=O)[C@H](CO)NC(=O)CN)C(=O)N[C@@H](CCCNC(=N)N)C(=O)N[C@@H](CO)C(=O)N[C@@H](CCC(N)=O)C(=O)N2` [EcAMP1-WT] (H-GSGRGSCRSQCMRRHEDEPWRVQECVSQCRRRRGGGD-OH; disulfide 7-29, 11-25; N-terminus and C-terminus assumed), the IC50 in experiment [1] was 18.4 ± 2.7 µM; in [2], 25.7 ± 3.6 µM; in experiment [3] (48 h), 5 µM; in experiment [4] it was greater than 32 µM; in experiment [5] (setting [12]), 6.8 ± 1 µM; in [6] (read-out: IC50 against filamentous fungi and oomycetes) it was 4.5 to 18.2 µM. For the same molecule, the IC50 in experiment [7] worked out at 0.625 µM. For the same molecule, the “Growth of S. aureus at 5 µM peptide” value in experiment [3] (Table S2, 5 µM, microdilution, CA-MHB, 37 °C 48 h, OD600, growth control +, negative control -) is on record as “MIC50”. Further, the “Growth of S. aureus at 10 µM peptide” value in experiment [3] (Table S2, 10 µM, microdilution, CA-MHB, 37 °C 48 h, OD600, growth control +, negative control -) is “MIC95”. For the same molecule, the “Growth of S. aureus at 20 µM peptide” value in experiment [3] (Table S2, 20 µM, microdilution, CA-MHB, 37 °C 48 h, OD600, growth control +, negative control -) is reported as “MIC99”. In experiment [6], the “Number of microbes for which inhibition activity was registered” value is listed as 11. In addition, the “Growth of C. albicans at 0.625 µM peptide” value in experiment [7] (Table S1, 0.625 µM, microdilution, YPDB, OD600, growth control +, negative control -) is on record as “MIC50”. For the same molecule, the “Growth of C. albicans at 1.25 µM peptide” value in experiment [7] (setting [13]) was “MIC99”. For the same molecule, the “MIC99, almost complete suppression of C. albicans” value in experiment [7] (microdilution, YPDB, range 0.625–80 µM, OD600) is recorded as 1.25 µM. In [8], the “Antibacterial activity against P. aeruginosa” value is “inactive”. Besides, the “Antibacterial activity against E. coli” value in experiment [9] was “inactive”.

On to `CSCC[C@@H]1NC(=O)[C@@H]2CSSC[C@H](NC(=O)[C@H](CCC(=O)O)NC(=O)[C@H](CCC(N)=O)NC(=O)[C@H](C(C)C)NC(=O)[C@H](CCCNC(=N)N)NC(=O)[C@H](Cc3c[nH]c4ccccc34)NC(=O)[C@@H]3CCCN3C(=O)[C@H](CCC(=O)O)NC(=O)[C@H](CC(=O)O)NC(=O)[C@H](CCC(=O)O)NC(=O)[C@H](Cc3c[nH]cn3)NC(=O)[C@H](CCCNC(=N)N)NC(=O)[C@H](CCCNC(=N)N)NC1=O)C(=O)N[C@@H](C(C)C)C(=O)N[C@@H](CO)C(=O)N[C@@H](CCC(N)=O)C(=O)N[C@H](C(=O)O)CSSC[C@H](N)C(=O)N[C@@H](CCCNC(=N)N)C(=O)N[C@@H](CO)C(=O)N[C@@H](CCC(N)=O)C(=O)N2` [EcAMP1-X1] (H-CRSQCMRRHEDEPWRVQECVSQC-OH; disulfide 1-23, 5-19 (inferred); N-terminus assumed), for which the 50% inhibitory concentration (IC50) in [1] is 21.1 ± 2.4 µM; in experiment [2] it was greater than 32 µM; in experiment [4], greater than 32 µM; in experiment [5] (setting [12]) it was 9 ± 1.4 µM; in [10] it was 6.9 ± 0.7 µM; in experiment [11] it was 15.4 ± 1.1 µM. Also, the “Antibacterial activity against S. aureus” value in experiment [3] (microdilution, CA-MHB, 37 °C 48 h, concentrations up to 80 µM) is “absolutely inactive”. Besides, the “Activity against C. albicans” value in experiment [7] (microdilution, YPDB, concentrations up to 80 µM) was “absolutely inactive”. The “Antibacterial activity against P. aeruginosa” value in experiment [8] was “absolutely inactive”. Moreover, in experiment [9], the “Antibacterial activity against E. coli” value is “absolutely inactive”.

With `CSCC[C@@H]1NC(=O)[C@@H](N)CSSC[C@@H](C(=O)O)NC(=O)[C@H](CCC(=O)O)NC(=O)[C@H](CCC(N)=O)NC(=O)[C@H](C(C)C)NC(=O)[C@H](CCCNC(=N)N)NC(=O)[C@H](Cc2c[nH]c3ccccc23)NC(=O)[C@@H]2CCCN2C(=O)[C@H](CCC(=O)O)NC(=O)[C@H](CC(=O)O)NC(=O)[C@H](CCC(=O)O)NC(=O)[C@H](Cc2c[nH]cn2)NC(=O)[C@H](CCCNC(=N)N)NC(=O)[C@H](CCCNC(=N)N)NC1=O` [EcAMP1-X2] (H-CMRRHEDEPWRVQEC-OH; disulfide 1-15), the IC50 in experiment [1] is greater than 32 µM; in experiment [2], greater than 32 µM; in experiment [4] it was greater than 32 µM; in [5] (setting [12]), 18.1 ± 2.1 µM; in experiment [10], 11 ± 1.9 µM; in [11] it was 23.2 ± 2.6 µM.

`CSCC[C@@H]1NC(=O)[C@@H]2CSSC[C@H](NC(=O)[C@H](CCC(=O)O)NC(=O)[C@H](CCC(N)=O)NC(=O)[C@H](C(C)C)NC(=O)[C@H](CCCNC(=N)N)NC(=O)[C@H](C)NC(=O)[C@@H]3CCCN3C(=O)[C@H](CCC(=O)O)NC(=O)[C@H](CC(=O)O)NC(=O)[C@H](CCC(=O)O)NC(=O)[C@H](Cc3c[nH]cn3)NC(=O)[C@H](CCCNC(=N)N)NC(=O)[C@H](CCCNC(=N)N)NC1=O)C(=O)N[C@@H](C(C)C)C(=O)N[C@@H](CO)C(=O)N[C@@H](CCC(N)=O)C(=O)N[C@H](C(=O)N[C@@H](CCCNC(=N)N)C(=O)N[C@@H](CCCNC(=N)N)C(=O)N[C@@H](CCCNC(=N)N)C(=O)N[C@@H](CCCNC(=N)N)C(=O)NCC(=O)NCC(=O)NCC(=O)N[C@@H](CC(=O)O)C(=O)O)CSSC[C@H](NC(=O)[C@H](CO)NC(=O)CNC(=O)[C@H](CCCNC(=N)N)NC(=O)CNC(=O)[C@H](CO)NC(=O)CN)C(=O)N[C@@H](CCCNC(=N)N)C(=O)N[C@@H](CO)C(=O)N[C@@H](CCC(N)=O)C(=O)N2` [EcAMP1-X3] (H-GSGRGSCRSQCMRRHEDEPARVQECVSQCRRRRGGGD-OH; disulfide 7-29, 11-25; N-terminus and C-terminus assumed): the IC50 in experiment [5] (48 h) is 9.9 ± 1.9 µM; in experiment [10] it was 8.6 ± 1.5 µM; in experiment [11], 15 ± 2.1 µM.

Regarding `CSCC[C@@H]1NC(=O)[C@@H]2CSSC[C@H](NC(=O)[C@H](CCC(=O)O)NC(=O)[C@H](CCC(N)=O)NC(=O)[C@H](C(C)C)NC(=O)[C@H](CCCNC(=N)N)NC(=O)[C@H](Cc3c[nH]c4ccccc34)NC(=O)[C@@H]3CCCN3C(=O)[C@H](CCC(=O)O)NC(=O)[C@H](CC(=O)O)NC(=O)[C@H](CCC(=O)O)NC(=O)[C@H](Cc3c[nH]cn3)NC(=O)[C@H](CCCNC(=N)N)NC(=O)[C@H](CCCNC(=N)N)NC1=O)C(=O)N[C@@H](C(C)C)C(=O)N[C@@H](CO)C(=O)N[C@@H](CCC(N)=O)C(=O)N[C@H](C(=O)N[C@@H](CCCNC(=N)N)C(=O)N[C@@H](CCCNC(=N)N)C(=O)O)CSSC[C@H](NC(=O)[C@H](CO)NC(=O)CNC(=O)[C@H](CCCNC(=N)N)NC(=O)CNC(=O)[C@H](CO)NC(=O)CN)C(=O)N[C@@H](CCCNC(=N)N)C(=O)N[C@@H](CO)C(=O)N[C@@H](CCC(N)=O)C(=O)N2` [EcAMP1-X4] (H-GSGRGSCRSQCMRRHEDEPWRVQECVSQCRR-OH; disulfide 7-29, 11-25; N-terminus and C-terminus assumed), the figures for the IC50 in [5] (48 h), in [10] and in [11] were 8.5 ± 1.2 µM, 7.8 ± 0.7 µM and 15.8 ± 1.6 µM, respectively.

For “LL37: linear α-helical antimicrobial peptide cathelicidin, positive control (LLGDFFRKSKEKIGKEFKRIVQRIKDFLRNLVPRTES; Antibacterial peptide LL-37; UniProt P49913 134-170, looked up) [reference compound]”, the “Growth of S. aureus at 0.625 µM peptide” value in [3] (Table S2, 0.625 µM, microdilution, CA-MHB, 37 °C 48 h, OD600, growth control +, negative control -) is recorded as “MIC50”. Further, the “Growth of S. aureus at 1.25 µM peptide” value in experiment [3] (Table S2, 1.25 µM, microdilution, CA-MHB, 37 °C 48 h, OD600, growth control +, negative control -) is recorded as “MIC99”. In addition, in [7] (setting [13]), the “Growth of C. albicans at 1.25 µM peptide” value is listed as “MIC99”. In addition, the “Growth of P. aeruginosa at 1.25 µM peptide” value in experiment [8] (Table S4, 1.25 µM, OD600, growth control +, negative control -) is given as “MIC99”. Moreover, the “Growth of E. coli at 1.25 µM peptide” value in experiment [9] (Table S3, 1.25 µM, OD600, growth control +, negative control -) is “MIC99”.
